Results reported in ChEMBL document CHEMBL1135338, “Protease inhibitors: synthesis of matrix metalloproteinase and bacterial collagenase inhibitors incorporating 5-amino-2-mercapto-1,3,4-thiadiazole zinc binding functions” (Bioorg Med Chem Lett, 2002).

Tests used:
[1] = target: Matrix metalloproteinase-9 (Homo sapiens, UniProt P14780); test: Inhibition of human matrix metalloprotease-9
[2] = target: Neutrophil collagenase (Homo sapiens, UniProt P22894); test: Inhibition of human matrix metalloprotease-8
Chain of Neutrophil collagenase (P22894 whole entry): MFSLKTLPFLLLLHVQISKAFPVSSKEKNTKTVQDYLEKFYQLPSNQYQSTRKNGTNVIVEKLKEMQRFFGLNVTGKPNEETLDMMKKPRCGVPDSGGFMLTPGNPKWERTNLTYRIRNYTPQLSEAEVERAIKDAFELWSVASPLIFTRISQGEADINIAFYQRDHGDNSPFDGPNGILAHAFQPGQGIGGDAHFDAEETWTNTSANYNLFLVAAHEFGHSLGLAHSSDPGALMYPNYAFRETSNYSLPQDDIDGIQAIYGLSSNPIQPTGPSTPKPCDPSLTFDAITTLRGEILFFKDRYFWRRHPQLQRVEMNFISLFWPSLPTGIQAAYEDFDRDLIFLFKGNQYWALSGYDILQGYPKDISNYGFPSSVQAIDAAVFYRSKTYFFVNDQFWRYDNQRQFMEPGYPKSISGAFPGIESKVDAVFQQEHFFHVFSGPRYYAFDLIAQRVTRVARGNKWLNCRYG

[3] = target: T1, Interstitial collagenase (Homo sapiens, UniProt P03956); test: Inhibition of human matrix metalloprotease-1
T1 sequence (P03956 whole entry): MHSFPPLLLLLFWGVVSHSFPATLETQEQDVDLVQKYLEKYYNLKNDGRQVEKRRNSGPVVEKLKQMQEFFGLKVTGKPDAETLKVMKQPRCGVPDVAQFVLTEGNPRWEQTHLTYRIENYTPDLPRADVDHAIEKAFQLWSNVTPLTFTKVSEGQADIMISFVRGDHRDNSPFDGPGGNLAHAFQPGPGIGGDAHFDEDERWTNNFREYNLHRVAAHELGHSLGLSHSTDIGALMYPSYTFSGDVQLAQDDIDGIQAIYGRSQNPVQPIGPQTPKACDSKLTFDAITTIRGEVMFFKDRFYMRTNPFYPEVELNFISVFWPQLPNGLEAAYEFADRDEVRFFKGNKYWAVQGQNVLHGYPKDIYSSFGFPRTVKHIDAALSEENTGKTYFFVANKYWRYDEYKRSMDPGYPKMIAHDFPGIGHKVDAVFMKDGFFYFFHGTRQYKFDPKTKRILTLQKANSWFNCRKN

[4] = target: T2, 72 kDa type IV collagenase (Homo sapiens, UniProt P08253); test: Inhibition of human matrix metalloprotease-2
T2 sequence (P08253 whole entry): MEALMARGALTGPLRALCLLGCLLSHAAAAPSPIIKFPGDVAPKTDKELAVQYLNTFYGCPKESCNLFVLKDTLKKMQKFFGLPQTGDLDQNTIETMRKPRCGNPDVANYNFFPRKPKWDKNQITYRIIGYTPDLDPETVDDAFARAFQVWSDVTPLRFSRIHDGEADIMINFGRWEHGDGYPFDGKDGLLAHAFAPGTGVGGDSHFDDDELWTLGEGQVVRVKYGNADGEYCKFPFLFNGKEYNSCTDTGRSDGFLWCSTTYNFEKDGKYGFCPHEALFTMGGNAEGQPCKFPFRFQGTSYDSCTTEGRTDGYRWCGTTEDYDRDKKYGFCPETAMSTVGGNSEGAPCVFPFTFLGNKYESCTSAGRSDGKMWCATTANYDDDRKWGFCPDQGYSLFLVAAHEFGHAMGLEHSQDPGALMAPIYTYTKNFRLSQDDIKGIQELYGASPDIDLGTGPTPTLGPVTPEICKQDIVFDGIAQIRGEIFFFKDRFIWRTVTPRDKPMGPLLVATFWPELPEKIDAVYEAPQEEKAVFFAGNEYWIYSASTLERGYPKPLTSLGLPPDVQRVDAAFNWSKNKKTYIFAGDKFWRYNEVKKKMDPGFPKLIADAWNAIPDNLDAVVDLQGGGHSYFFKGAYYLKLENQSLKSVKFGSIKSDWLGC

[5] = target: T2, 72 kDa type IV collagenase; test: Inhibition of human Matrix metalloprotease-2
[6] = target: Stromelysin-1 (Homo sapiens, UniProt P08254); test: Inhibition of human Matrix metalloprotease-3
Chain of Stromelysin-1 (P08254 whole entry): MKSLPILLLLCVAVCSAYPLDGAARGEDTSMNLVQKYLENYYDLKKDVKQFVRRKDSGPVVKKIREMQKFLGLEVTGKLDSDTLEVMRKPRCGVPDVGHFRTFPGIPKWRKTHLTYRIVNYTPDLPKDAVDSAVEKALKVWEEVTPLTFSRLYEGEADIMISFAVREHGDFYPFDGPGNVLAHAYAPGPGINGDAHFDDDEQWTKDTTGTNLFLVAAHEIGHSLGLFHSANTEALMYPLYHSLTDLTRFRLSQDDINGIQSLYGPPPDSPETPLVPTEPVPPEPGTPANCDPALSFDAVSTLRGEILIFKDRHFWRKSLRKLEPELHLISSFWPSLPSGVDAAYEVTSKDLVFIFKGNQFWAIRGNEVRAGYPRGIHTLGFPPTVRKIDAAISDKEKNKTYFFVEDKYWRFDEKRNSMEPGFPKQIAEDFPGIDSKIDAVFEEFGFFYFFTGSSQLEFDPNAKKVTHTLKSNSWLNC

Chain of Matrix metalloproteinase-9 (P14780 whole entry): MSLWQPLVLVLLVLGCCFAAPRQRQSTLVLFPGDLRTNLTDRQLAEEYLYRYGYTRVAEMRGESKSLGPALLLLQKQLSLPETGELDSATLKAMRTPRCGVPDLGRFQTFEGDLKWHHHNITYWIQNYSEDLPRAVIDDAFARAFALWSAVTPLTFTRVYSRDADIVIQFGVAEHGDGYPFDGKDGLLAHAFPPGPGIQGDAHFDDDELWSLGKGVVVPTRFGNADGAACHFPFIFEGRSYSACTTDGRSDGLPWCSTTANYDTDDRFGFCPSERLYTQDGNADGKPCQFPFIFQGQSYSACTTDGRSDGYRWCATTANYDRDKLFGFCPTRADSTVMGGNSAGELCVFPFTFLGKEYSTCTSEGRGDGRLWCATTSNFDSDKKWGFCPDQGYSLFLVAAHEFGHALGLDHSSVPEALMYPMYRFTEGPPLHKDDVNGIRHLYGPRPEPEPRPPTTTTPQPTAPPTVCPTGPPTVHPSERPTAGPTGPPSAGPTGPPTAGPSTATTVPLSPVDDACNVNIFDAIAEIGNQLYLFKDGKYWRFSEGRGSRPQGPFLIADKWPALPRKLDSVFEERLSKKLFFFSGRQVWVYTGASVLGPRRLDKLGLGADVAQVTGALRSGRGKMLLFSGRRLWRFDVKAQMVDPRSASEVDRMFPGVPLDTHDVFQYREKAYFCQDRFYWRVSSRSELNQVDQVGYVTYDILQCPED

Ki [1]	Ki [2]	Ki [3]	Ki [4]	Ki [5]	Ki [6]	SMILES
10 µM	–	14 µM	8 µM	–	–	CC(=O)Nc1ccc(S(=O)(=O)N[C@@H](Cc2ccccc2)C(=O)N[C@@H](C)C(=O)Nc2n[nH]c(=S)s2)cc1
53 µM	45 µM	72 µM	33 µM	–	–	C[C@H](NC(=O)[C@H](Cc1ccccc1)NS(=O)(=O)c1ccc2ccccc2c1)C(=O)Nc1n[nH]c(=S)s1
2 µM	1 µM	–	6 µM	–	–	C[C@H](NC(=O)[C@H](Cc1ccccc1)NS(=O)(=O)c1c(F)c(F)c(F)c(F)c1F)C(=O)Nc1n[nH]c(=S)s1
14 µM	–	19 µM	17 µM	–	–	C[C@H](NC(=O)[C@H](Cc1ccccc1)NS(=O)(=O)c1ccc(F)cc1)C(=O)Nc1n[nH]c(=S)s1
4 µM	–	19 µM	5 µM	–	–	C[C@H](NC(=O)[C@H](Cc1ccccc1)NC(=O)NS(=O)(=O)c1ccccc1)C(=O)Nc1n[nH]c(=S)s1
29 µM	25 µM	33 µM	24 µM	–	–	Cc1cc(C)c(S(=O)(=O)N[C@@H](Cc2ccccc2)C(=O)N[C@@H](C)C(=O)Nc2n[nH]c(=S)s2)c(C)c1
17 µM	9 µM	19 µM	10 µM	–	–	C[C@H](NC(=O)[C@H](Cc1ccccc1)NS(=O)(=O)c1cc(Cl)ccc1Cl)C(=O)Nc1n[nH]c(=S)s1
5 µM	–	13 µM	11 µM	–	–	C[C@H](NC(=O)[C@H](Cc1ccccc1)NS(=O)(=O)c1cccc(C(F)(F)F)c1)C(=O)Nc1n[nH]c(=S)s1
21 µM	20 µM	28 µM	18 µM	–	–	COc1ccc(S(=O)(=O)N[C@@H](Cc2ccccc2)C(=O)N[C@@H](C)C(=O)Nc2n[nH]c(=S)s2)cc1
5 µM	5 µM	15 µM	7 µM	–	–	Cc1ccc(S(=O)(=O)NC(=O)N[C@@H](Cc2ccccc2)C(=O)N[C@@H](C)C(=O)Nc2n[nH]c(=S)s2)cc1
0.4 µM	0.2 µM	10 µM	4 µM	–	–	C[C@H](NC(=O)[C@H](Cc1ccccc1)NC(=O)NS(=O)(=O)c1ccc(Cl)cc1)C(=O)Nc1n[nH]c(=S)s1
50 µM	48 µM	87 µM	40 µM	–	–	C[C@H](NC(=O)[C@H](Cc1ccccc1)NS(=O)(=O)c1cccc2c(N(C)C)cccc12)C(=O)Nc1n[nH]c(=S)s1
10 µM	–	14 µM	13 µM	–	–	C[C@H](NC(=O)[C@H](Cc1ccccc1)NS(=O)(=O)c1cccs1)C(=O)Nc1n[nH]c(=S)s1
40 µM	34 µM	69 µM	35 µM	–	–	C[C@H](NC(=O)[C@H](Cc1ccccc1)NS(=O)(=O)CC12CCC(CC1=O)C2(C)C)C(=O)Nc1n[nH]c(=S)s1 (stereo partly drawn)
45 µM	39 µM	74 µM	41 µM	–	–	C[C@H](NC(=O)[C@H](Cc1ccccc1)NS(=O)(=O)c1cccc2cccnc12)C(=O)Nc1n[nH]c(=S)s1
18 µM	10 µM	15 µM	12 µM	–	–	C[C@H](NC(=O)[C@H](Cc1ccccc1)NS(=O)(=O)c1ccc([N+](=O)[O-])cc1)C(=O)Nc1n[nH]c(=S)s1
20 µM	23 µM	30 µM	20 µM	–	–	Cc1ccc(S(=O)(=O)N[C@@H](Cc2ccccc2)C(=O)N[C@@H](C)C(=O)Nc2n[nH]c(=S)s2)cc1
16 µM	–	24 µM	16 µM	–	–	C[C@H](NC(=O)[C@H](Cc1ccccc1)NS(=O)(=O)Cc1ccccc1)C(=O)Nc1n[nH]c(=S)s1
21 µM	–	24 µM	15 µM	–	–	C[C@H](NC(=O)[C@H](Cc1ccccc1)NS(=O)(=O)c1ccc(Br)cc1)C(=O)Nc1n[nH]c(=S)s1
18 µM	–	21 µM	17 µM	–	–	C[C@H](NC(=O)[C@H](Cc1ccccc1)NS(=O)(=O)c1ccc(I)cc1)C(=O)Nc1n[nH]c(=S)s1
–	–	–	–	2 µM	–	CC(C)C(NS(=O)(=O)c1ccc(-c2ccccc2)cc1)C(=O)O (stereo not drawn)
–	–	–	–	2 µM	–	O=C(O)C(Cc1ccccc1)NS(=O)(=O)c1ccc(-c2ccc(Br)cc2)cc1 (stereo not drawn)
–	–	–	–	2 µM	–	O=C(O)C(Cc1ccccc1)NS(=O)(=O)c1ccc(-c2ccccc2)cc1 (stereo not drawn)
–	–	–	–	2 µM	–	CC(C)C(NS(=O)(=O)c1ccc(-c2ccc(Cl)cc2)cc1)C(=O)O (stereo not drawn)
–	–	–	–	–	0.019 µM	O=C(O)[C@H](Cc1c[nH]c2ccccc12)NS(=O)(=O)c1ccc(N2CCC(c3ccccc3)CC2)cc1
–	–	–	–	2 µM	–	O=C(O)C(Cc1ccccc1)NS(=O)(=O)c1ccc(-c2ccc(Cl)cc2)cc1 (stereo not drawn)

SMILES	Ki [1]	Ki [2]	Ki [3]	Ki [4]	Ki [5]	Ki [6]
C[C@H](NC(=O)[C@H](Cc1ccccc1)NS(=O)(=O)c1ccccc1)C(=O)Nc1n[nH]c(=S)s1	15 µM	24 µM	22 µM	18 µM	–	–
C[C@H](NC(=O)[C@H](Cc1ccccc1)NS(=O)(=O)c1ccccc1[N+](=O)[O-])C(=O)Nc1n[nH]c(=S)s1	14 µM	17 µM	29 µM	15 µM	–	–
Cc1ccccc1S(=O)(=O)NC(=O)N[C@@H](Cc1ccccc1)C(=O)N[C@@H](C)C(=O)Nc1n[nH]c(=S)s1	7 µM	6 µM	19 µM	8 µM	–	–
C[C@H](NC(=O)[C@H](Cc1ccccc1)NS(=O)(=O)c1cccc2ccccc12)C(=O)Nc1n[nH]c(=S)s1	44 µM	–	80 µM	36 µM	–	–
C[C@H](NC(=O)[C@H](Cc1ccccc1)NC(=O)NS(=O)(=O)c1ccc(F)cc1)C(=O)Nc1n[nH]c(=S)s1	0.3 µM	0.1 µM	12 µM	2 µM	–	–
C[C@H](NC(=O)[C@H](Cc1ccccc1)NS(=O)(=O)c1cccc([N+](=O)[O-])c1)C(=O)Nc1n[nH]c(=S)s1	18 µM	13 µM	18 µM	12 µM	–	–
C[C@H](NC(=O)[C@H](Cc1ccccc1)NS(=O)(=O)c1ccc(Cl)cc1)C(=O)Nc1n[nH]c(=S)s1	15 µM	–	20 µM	16 µM	–	–
